The text below walks through data of article PMC12221113, “Deferasirox Derivatives as Inhibitors of Kallikrein‐Related Peptidases Associated to Neurodegenerative Diseases” (Chemmedchem, 2025).

One series addresses T1, KLK11 (Homo sapiens, UniProt Q9UBX7).
T1 construct: purchased R&D Systems
T1 sequence (Q9UBX7 54-282): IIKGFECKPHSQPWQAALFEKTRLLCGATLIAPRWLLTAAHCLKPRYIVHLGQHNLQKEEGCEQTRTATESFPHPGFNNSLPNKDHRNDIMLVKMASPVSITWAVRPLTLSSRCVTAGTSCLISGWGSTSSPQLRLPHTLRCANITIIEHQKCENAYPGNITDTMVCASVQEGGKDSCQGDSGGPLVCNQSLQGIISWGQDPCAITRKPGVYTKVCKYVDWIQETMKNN
Briefly: Selectivity screening, KLK11. It is filed as biochemical. The following applies: 50 μM compound, without Fe3+; read-out: percentage of inhibition KLK11.

Series [1] in a line: CCK8 cell viability assay, HMC3. It is filed as cell-based. The following applies: human, HMC3 microglial cells; HMC3, 24h, 25 and 50 μM, in absence or presence of iron (100 µM FAC); read-out: percentage of cell viability. For orientation: Tetrazolium assays rely on reduction of a dye to a coloured formazan, in cell work by metabolically active cells.
Method: (§1) Human neuroblastoma cell line (SH-SY5Y) was purchased at American Type Culture Collection
(§2) Both cell lines were cultured in Dulbecco’s Modified Eagle Medium (DMEM)
(§3) containing 10% heat inactivated fetal bovine serum (FBS), 1% Penicillin/Streptomycin, 10 mM
(§4) Sodium Pyruvate, 2 mM L-Glutamine and 4,5 g/L D-glucose at 37°C, in a 5% humidified
(§5) incubator. Cells were cultivated until 80% confluence in flasks then were plated in 96-well
(§6) plates. For this experiment, SH-SY5Y were used at 10th passage and HMC3 at 13th. SH-SY5Y
(§7) cells were seeded at a density of 3x10^4 cells/well and HMC3 at a density of 10^4 cells/well. After
(§8) seeding, cells were left in complete medium overnight to adhere to the plates. After that, cells
(§9) were treated using inhibitors solubilized in DMSO at stock concentrations of 2,5 mM or 5 mM
(§10) with or without 10 mM iron. Iron solution was prepared by using FAC (Ferric Ammonium
(§11) Citrate, Sigma®) at stock concentration of 25 mM. After 24h of treatment, cell viability was
(§12) assessed with the CCK8 (Cell-Counting Kit 8) from TargetMol. After treatments, 10 µL of CCK8
(§13) reagent was diluted in 90 µL of complete medium and added to each well. After 3 hours at
(§14) 37°C, cell viability was assessed by absorbance measurement at 460 nm. Each viability assay
(§15) is the mean of two independent experiments performed in triplicates.
(§16) treated for 24h with the two selected concentrations of inhibitor (25 µM or 50 µM)
(§17) preincubated or not with 100 µM of FAC. The data are the mean of two independent
experiments performed in triplicates.
Series [2] in a line: Calcein transchelation (calcein release) assay. It counts as physicochemical. The following applies: calcein 100 nM, 4 h at room temperature; estimation, assay not fully quantitative; read-out: Apparent affinity (pseudo‐affinity constant Kd for Fe3+).
The target of another series is KLK7 (Homo sapiens, UniProt P49862). The experiment in a line: Selectivity screening, KLK7. The note with it: read-out: percentage of inhibition KLK7.
Chain of KLK7 (P49862 30-253): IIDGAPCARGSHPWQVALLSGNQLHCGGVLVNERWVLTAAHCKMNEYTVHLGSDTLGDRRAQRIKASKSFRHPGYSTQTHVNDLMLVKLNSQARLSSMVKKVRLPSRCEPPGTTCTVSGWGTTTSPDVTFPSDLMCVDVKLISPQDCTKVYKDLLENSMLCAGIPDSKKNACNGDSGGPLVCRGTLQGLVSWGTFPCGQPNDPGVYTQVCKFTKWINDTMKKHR
The next series deals with T2, KLK4 (Homo sapiens, UniProt Q9Y5K2).
T2 construct: purchased R&D Systems
T2 sequence (Q9Y5K2 31-254): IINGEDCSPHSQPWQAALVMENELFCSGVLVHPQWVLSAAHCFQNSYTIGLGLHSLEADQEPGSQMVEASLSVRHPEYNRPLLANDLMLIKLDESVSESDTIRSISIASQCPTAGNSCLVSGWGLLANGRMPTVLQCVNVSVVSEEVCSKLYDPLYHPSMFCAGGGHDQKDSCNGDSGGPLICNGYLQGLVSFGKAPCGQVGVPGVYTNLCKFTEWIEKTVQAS
The experiment in a line: Selectivity screening, KLK4. It is filed as biochemical. The note with it: 50 μM compound, without Fe3+; read-out: percentage of inhibition KLK4.

For the next series, the target named is T3, KLK8 (Homo sapiens, UniProt O60259).
T3 sequence (O60259 33-260): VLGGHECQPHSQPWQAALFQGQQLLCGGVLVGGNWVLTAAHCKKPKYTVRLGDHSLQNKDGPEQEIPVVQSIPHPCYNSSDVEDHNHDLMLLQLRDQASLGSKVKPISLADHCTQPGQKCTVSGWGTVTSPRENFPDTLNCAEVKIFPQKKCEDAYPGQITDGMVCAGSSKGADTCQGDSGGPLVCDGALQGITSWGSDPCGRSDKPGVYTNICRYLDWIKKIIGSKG
Briefly: KLK8 fluorogenic enzyme inhibition assay (Boc-VPR-AMC). The note with it: for inhibition at 50 µM: read-out: percentage of inhibition KLK8.

The target in a further series is T4, KLK13 (Homo sapiens, UniProt Q9UKR3).
T4 sequence (Q9UKR3 26-277 limits assumed): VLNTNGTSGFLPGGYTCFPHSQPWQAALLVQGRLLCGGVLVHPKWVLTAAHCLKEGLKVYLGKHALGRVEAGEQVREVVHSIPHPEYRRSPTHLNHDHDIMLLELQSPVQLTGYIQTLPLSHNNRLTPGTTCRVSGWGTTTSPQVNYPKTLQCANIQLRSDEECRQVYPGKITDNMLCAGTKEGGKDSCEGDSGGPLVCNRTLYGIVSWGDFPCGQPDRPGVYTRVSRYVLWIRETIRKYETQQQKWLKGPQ
Briefly: Selectivity screening, KLK13. The note with it: read-out: percentage of inhibition KLK13.

A short description of series [3]: CCK8 cell viability assay, SH-SY5Y. It is filed as cell-based. The following applies: human, SH-SY5Y neuroblastoma cells, 25 and 50 μM, in absence or presence of iron (100 µM FAC), read-out: percentage of cell viability.
Method: as §1, §2, §3, §4, §5, §6, §7, §8, §9, §10, §11, §12, §13, §14, §15, §16, §17
experiments performed in triplicates.
In another series the target is Thrombin (Homo sapiens, UniProt P00734). Briefly: Selectivity screening, thrombin. It is filed as biochemical. The following applies: 50 μM compound, without Fe3+; read-out: percentage of inhibition Thrombin.
Another series deals with T5, KLK5 (Homo sapiens, UniProt Q9Y337).
T5 sequence (Q9Y337 67-293 limits assumed): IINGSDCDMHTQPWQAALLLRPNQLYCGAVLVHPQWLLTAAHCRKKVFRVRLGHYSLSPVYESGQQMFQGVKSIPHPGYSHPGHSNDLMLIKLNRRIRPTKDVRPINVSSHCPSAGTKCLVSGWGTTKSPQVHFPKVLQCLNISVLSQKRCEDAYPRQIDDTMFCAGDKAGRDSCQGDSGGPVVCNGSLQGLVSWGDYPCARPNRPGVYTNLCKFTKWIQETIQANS
The experiment in a line: Selectivity screening, KLK5. The following applies: read-out: percentage of inhibition KLK5.

For a further series, the target named is T6, KLK14 (Homo sapiens, UniProt Q9P0G3).
T6 construct: purchased R&D Systems
T6 sequence (Q9P0G3 25-251): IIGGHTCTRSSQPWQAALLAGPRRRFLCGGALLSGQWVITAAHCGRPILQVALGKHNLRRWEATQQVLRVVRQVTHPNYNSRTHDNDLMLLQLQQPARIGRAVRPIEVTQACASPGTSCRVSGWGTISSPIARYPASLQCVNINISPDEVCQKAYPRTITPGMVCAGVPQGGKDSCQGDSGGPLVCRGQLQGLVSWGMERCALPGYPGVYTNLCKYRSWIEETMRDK
Briefly: Selectivity screening, KLK14. It is filed as biochemical. The following applies: 50 μM compound, without Fe3+; read-out: percentage of inhibition KLK14.

Series [4] concerns KLK's of the CNS triad (KLK1‐KLK6‐KLK8). Briefly: Reversibility analysis by dilution after preincubation. It is filed as biochemical, human. The following applies: 100-fold dilution after 15 min preincubation.
Method: Aliquots of reaction mixtures (1 μL) were added to 99 μL of buffer containing the fluorogenic substrate (experimental conditions identical to the routine protocol used for a given enzyme). The mechanism of inhibition was determined by varying substrate and inhibitor concentrations, the type of inhibition and inhibition parameter (Ki or Ki′) are determined by Dixon's plots.
The target of another series is Plasmin (Homo sapiens, UniProt P00747). The experiment in a line: Selectivity screening, plasmin. The following applies: read-out: percentage of inhibition Plasmin.
Chain of Plasmin (P00747 581-810 limits assumed, species assumed): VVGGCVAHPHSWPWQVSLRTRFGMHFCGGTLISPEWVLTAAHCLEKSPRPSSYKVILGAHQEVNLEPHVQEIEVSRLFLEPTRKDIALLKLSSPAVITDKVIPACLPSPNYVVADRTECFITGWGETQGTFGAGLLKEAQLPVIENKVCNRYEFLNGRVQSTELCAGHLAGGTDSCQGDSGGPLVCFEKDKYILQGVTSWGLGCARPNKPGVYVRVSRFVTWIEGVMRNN
Chain of Plasmin (P00747 97-580 partner limits assumed, species assumed): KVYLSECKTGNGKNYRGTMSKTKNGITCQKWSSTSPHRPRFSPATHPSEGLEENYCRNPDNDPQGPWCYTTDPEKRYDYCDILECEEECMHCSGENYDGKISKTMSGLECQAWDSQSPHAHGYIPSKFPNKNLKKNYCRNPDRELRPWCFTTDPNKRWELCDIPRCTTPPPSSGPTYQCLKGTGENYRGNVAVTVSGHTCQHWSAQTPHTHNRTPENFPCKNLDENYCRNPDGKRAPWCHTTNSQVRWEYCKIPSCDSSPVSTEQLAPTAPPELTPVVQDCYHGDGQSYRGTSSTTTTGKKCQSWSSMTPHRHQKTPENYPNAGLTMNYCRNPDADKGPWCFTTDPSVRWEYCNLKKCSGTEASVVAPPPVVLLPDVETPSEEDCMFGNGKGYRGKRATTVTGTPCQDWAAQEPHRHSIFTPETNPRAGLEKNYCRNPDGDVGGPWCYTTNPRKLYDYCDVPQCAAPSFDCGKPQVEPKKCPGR
For a further series, the target named is KLK1 (Homo sapiens, UniProt P06870). The experiment in a line: KLK1 fluorogenic enzyme inhibition assay (H-PFR-AMC). The note with it: read-out: percentage of inhibition KLK1.
Chain of KLK1 (P06870 25-262): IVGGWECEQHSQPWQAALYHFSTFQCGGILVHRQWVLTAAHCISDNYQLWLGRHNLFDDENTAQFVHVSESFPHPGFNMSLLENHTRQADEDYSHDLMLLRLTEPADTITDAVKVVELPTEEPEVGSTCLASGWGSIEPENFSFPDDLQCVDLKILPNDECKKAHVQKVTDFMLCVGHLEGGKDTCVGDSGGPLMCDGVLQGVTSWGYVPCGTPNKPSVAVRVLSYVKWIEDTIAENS
A further series addresses Cathepsin L (Homo sapiens, UniProt P07711). Briefly: Selectivity screening, cathepsin L. It counts as biochemical. The note with it: 50 μM compound, without Fe3+; read-out: percentage of inhibition Cathepsin L.

Some results are limits rather than exact numbers.

Chain of Cathepsin L (P07711 114-333, species assumed): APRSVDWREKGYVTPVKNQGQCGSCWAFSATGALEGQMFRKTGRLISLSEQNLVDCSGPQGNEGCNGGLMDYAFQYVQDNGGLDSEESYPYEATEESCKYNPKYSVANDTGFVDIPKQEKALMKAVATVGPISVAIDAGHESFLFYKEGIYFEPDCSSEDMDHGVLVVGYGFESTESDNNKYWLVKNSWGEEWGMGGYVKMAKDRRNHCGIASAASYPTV
Method for KLK13: (§18) All enzyme stocks were stored at −20 °C and purchased from R&D Systems as proenzymes (KLK6, KLK8, KLK13) or as mature and active forms (KLK5). Activation of KLK6, KLK8, and KLK13 is performed in optimized buffers. The activation reaction is initiated by Lysyl‐Endopeptidase at 2.5 mU mL^−1 (Wako Bioproducts). The activation reaction is stopped by diluting the enzyme to 0.5 μg mL^−1 in assay buffer (50 mM Tris, 1 M Citrate, 0.05% w/v Brij‐35, pH 8) to obtain an active enzyme stock. KLK1 was purchased from R & D Systems as pro‐KLK1. Activation of KLK1 is performed in 50 mM Tris‐HCl, 10 mM CaCl2, 150 mM NaCl, 0.05% Brij‐35, pH 7.5. The activation reaction is initiated by bacterial thermolysin at 0.4 μg mL^−1 (Sigma‐Aldrich) and stopped by addition of 100 mM EDTA (Sigma‐Aldrich) to obtain an active KLK1 stock at the same concentration of 100 μg mL^−1. The activation reactions for KLK7 are initiated bacterial thermolysin at 0.4 μg mL^−1 (Sigma‐Aldrich) and stopped by addition of 100 mM EDTA (Sigma‐Aldrich) to obtain active stocks. All enzyme stocks were stored at −20 °C. H‐PFR‐AMC (KLK1), Boc‐VPR‐AMC (KLK5, KLK8, KLK13), Boc‐QAR‐AMC (KLK6, Plasmin), substrates were purchased from Bachem. MeO‐Suc‐RPY‐AMC (KLK7) substrate was purchased from AAT Bioquest. Plasmin (Sigma‐Aldrich) was purchased in mature and active form.
(§19) Compounds were screened on KLKs using a BMG Fluostar microplate reader (black 96‐well microplates). Hit compounds were screened on the selected group of enzymes using optimized concentrations and buffers (KLK1 0.8 nM, KLK4 10 nM, KLK5 0.2 nM; KLK6 1.9 nM; KLK7 6 nM; KLK8 0.2 nM; KLK11 5.2 nM, KLK13 0.47 nM, KLK14 2.5 nM, plasmin 3.3 nM, thrombin 0.1 nM, tissue‐plasminogen activator (tPA) 0.1 nM, matriptase 1 nM, cathepsin L 2 nM) either in absence or prior preincubation in the presence of 100 μM of Fe^3+.
(§20) The proteases are first preincubated for 15 min with each compound (50 and 100 μM) or with DMSO (<2%, negative control) in a total volume of 85 μL of 50 mM Tris buffer, 1 M citrate, 0.05% Brij‐35, pH 7, 37 °C. The reaction is triggered by the appropriate substrate at the optimized concentration in 15 μL of 50 mM Tris buffer, 1 M citrate, 0.05% Brij‐35, pH 8 (H‐PFR‐AMC 100 μM; Boc‐VPR‐AMC 100 μM; Boc‐QAR‐AMC 100 μM; Meo‐Suc‐RPY‐AMC 150 μM, Z‐LR‐AMC 100 μM, Z‐GGR‐AMC 100 μM) and followed for 30 min at 37 °C. […] The release of the AMC fluorescent group is detected using the following wavelengths: λex = 360 nm and λem = 460 nm. The percent inhibition is calculated from Equation (1) where V 0 is the initial rate of the DMSO control, the initial rate in the presence of the inhibitor V i. (1) %inhibition=(1−(vi/v0))×100
Method for KLK5: as §18, §19, §20
Method for KLK7: as §18
(§21) Compounds were screened on KLKs using a BMG Fluostar microplate reader (black 96‐well microplates). […]
(§22) The proteases are first preincubated for 15 min with each compound (50 and 100 μM) or with DMSO (<2%, negative control) in a total volume of 85 μL of 50 mM Tris buffer, 1 M citrate, 0.05% Brij‐35, pH 7, 37 °C. […] The release of the AMC fluorescent group is detected using the following wavelengths: λex = 360 nm and λem = 460 nm. The percent inhibition is calculated from Equation (1) where V 0 is the initial rate of the DMSO control, the initial rate in the presence of the inhibitor V i. […]
Method for Plasmin: All enzyme stocks were stored at −20 °C and purchased from R&D Systems as proenzymes (KLK6, KLK8, KLK13) or as mature and active forms (KLK5). Activation of KLK6, KLK8, and KLK13 is performed in optimized buffers. The activation reaction is initiated by Lysyl‐Endopeptidase at 2.5 mU mL^−1 (Wako Bioproducts). The activation reaction is stopped by diluting the enzyme to 0.5 μg mL^−1 in assay buffer (50 mM Tris, 1 M Citrate, 0.05% w/v Brij‐35, pH 8) to obtain an active enzyme stock. KLK1 was purchased from R & D Systems as pro‐KLK1. Activation of KLK1 is performed in 50 mM Tris‐HCl, 10 mM CaCl2, 150 mM NaCl, 0.05% Brij‐35, pH 7.5. […]
as §21, §22

With `O=C(O)C1CCCN1C(=O)c1ccc(-n2nc(-c3ccccc3O)nc2-c2ccccc2O)cc1` (stereo not drawn) [3mb], the inhibition (in general, the percentage by which the read-out fell short of the control) at 50 µM at KLK11 amounted to 76.7%; on KLK7, 70.1%; at KLK4, 77.3%; at KLK8 it was 63.1%; on KLK13, 85.2%; at Thrombin, 61.1%. The figures for the inhibition at 50 µM at KLK5 and at KLK14 were 95.1% and 89.7%, respectively. In addition, the viability at 24 h in series [1] and in [3] was over 80% throughout. In addition, the Kd in series [2] is 0.029 ± 0.017 nM. In addition, inhibition against KLK8 was half-maximal at 25.9 ± 0.7 µM (IC50). At KLK8 (Dixon plot, 100 μM substrate, without Fe3+), the “Ki′ KLK8” value stood at 25 µM. The “Type of inhibition KLK8” value on KLK8 (Dixon plot, without Fe3+) is “uncompetitive inhibition”. In addition, the “reversibility and time dependence of inhibition” value in series [4] is “reversible and time‐independent inhibitors”.

For `O=C(NC(Cc1c[nH]c2ccccc12)C(=O)O)c1ccc(-n2nc(-c3ccccc3O)nc2-c2ccccc2O)cc1` (stereo not drawn) [3lb], the inhibition at 50 µM on KLK11 was 81.4%; on Plasmin, 60.5%; at KLK1, 90.1%; on KLK7, 90.5%; at Cathepsin L, under 50%; at KLK4 it was 99.7%. The inhibition at 50 µM at KLK8 was 50.2%; at KLK13, 98.1%; on KLK5 it was 98.2%; on KLK14, 98.8%. Besides, the viability at 24 h in [1] and in series [3] was over 80% throughout. The IC50 (commonly the midpoint of a concentration-inhibition curve) against KLK8 turned out to be 27.1 ± 1.1 µM. The Ki (in general, a dissociation constant, usually derived from enzyme kinetics or from competition with a known ligand) on KLK8 was found to be 12 µM. Besides, in series [4], the “reversibility and time dependence of inhibition” value was “reversible and time‐independent inhibitors”.
